ChEMBL document CHEMBL1201862, “PubChem BioAssay data set” (2004)
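Method: 48-hour compound exposure of cells in 96-well plates, five concentrations, linear interpolation of endpoints. Here, GI50 denotes the concentration required for 50% inhibition of growth.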 Calls of active or inactive are those of the source. Cut-off read from the data, not from the text of the source: active = GI50 up to about 1.1 µM and inactive = higher. Peptide text beside a SMILES is read from it. * marks the point of attachment. OSu = O=C1CCC(=O)N1O*

Tests used:
Assay in all cases: NCI tumour cell line growth inhibition, 48 h
A498 = tested on: A498
BT-549 = tested on: BT-549
COLO 205 = tested on: COLO 205
HCT-116 = tested on: HCT-116
HL-60 = tested on: HL-60
HOP-62 = tested on: HOP-62
Hs-578T = tested on: Hs-578T
K562 = tested on: K562
MCF7 = tested on: MCF7
MDA-MB-435 = tested on: MDA-MB-435
MOLT-4 = tested on: MOLT-4
OVCAR-3 = tested on: OVCAR-3
RXF 393 = tested on: RXF 393
SF-295 = tested on: SF-295
SK-MEL-28 = tested on: SK-MEL-28
SK-OV-3 = tested on: SK-OV-3
SN12C = tested on: SN12C
U-251 = tested on: U-251
T47D = tested on: T47D

Compound	GI50 (A498)	GI50 (BT-549)	GI50 (COLO 205)	GI50 (HCT-116)	GI50 (HL-60)	GI50 (HOP-62)	GI50 (Hs-578T)	GI50 (K562)	GI50 (MCF7)	GI50 (MDA-MB-435)	GI50 (MOLT-4)	GI50 (OVCAR-3)	GI50 (RXF 393)	GI50 (SF-295)	GI50 (SK-MEL-28)	GI50 (SK-OV-3)	GI50 (SN12C)	GI50 (U-251)	GI50 (T47D)
CNc1ccc(C(=O)CC(O)CCC(C)C2OC(=O)CC(O)CC(=O)CC(O)CC(O)CC(O)CC(O)CC3(O)CC(O)C(C(=O)N4CCOCC4)C(CC(OC4OC(C)C(O)C(N)C4O)\C=C/C=C\C=C/C=C/C=C/C=C\C=C/C2C)O3)cc1 (stereo not given)	0.147 µM (active)	0.241 µM (active)	0.416 µM (active)	0.504 µM (active)	0.373 µM (active)	0.351 µM (active)	0.294 µM (active)	0.378 µM (active)	0.285 µM (active)	0.281 µM (active)	0.399 µM (active)	0.435 µM (active)	0.318 µM (active)	0.446 µM (active)	0.186 µM (active)	0.418 µM (active)	0.229 µM (active)	0.243 µM (active)	–
O=P(O)(O)C(N=C(Nc1ccccc1)Nc1ccccc1)P(=O)(O)O	–	> 100 µM (inactive)	> 100 µM (inactive)	> 100 µM (inactive)	–	> 100 µM (inactive)	> 100 µM (inactive)	–	> 100 µM (inactive)	–	–	> 100 µM (inactive)	> 100 µM (inactive)	> 100 µM (inactive)	–	> 100 µM (inactive)	–	–	–
NS(=O)(=O)c1ccc(N2C(=O)C(=O)N(c3ccccc3)C2=S)cc1	> 100 µM (inactive)	–	> 100 µM (inactive)	> 100 µM (inactive)	> 100 µM (inactive)	> 100 µM (inactive)	> 100 µM (inactive)	> 100 µM (inactive)	–	> 100 µM (inactive)	> 100 µM (inactive)	–	75.7 µM (inactive)	> 100 µM (inactive)	> 100 µM (inactive)	> 100 µM (inactive)	> 100 µM (inactive)	> 100 µM (inactive)	55.1 µM (inactive)
CCN(C(=O)N[C@@H](Cc1ccccc1)C(=O)N[C@@H](CC(C)C)C(=O)NC)c1ccccc1	–	> 100 µM (inactive)	> 100 µM (inactive)	> 100 µM (inactive)	–	> 100 µM (inactive)	–	> 100 µM (inactive)	> 100 µM (inactive)	> 100 µM (inactive)	> 100 µM (inactive)	> 100 µM (inactive)	> 100 µM (inactive)	> 100 µM (inactive)	> 100 µM (inactive)	> 100 µM (inactive)	> 100 µM (inactive)	> 100 µM (inactive)	> 100 µM (inactive)
OCC1CCCC1O (stereo not given)	> 100 µM (inactive)	> 100 µM (inactive)	> 100 µM (inactive)	> 100 µM (inactive)	> 100 µM (inactive)	–	–	> 100 µM (inactive)	> 100 µM (inactive)	> 100 µM (inactive)	> 100 µM (inactive)	> 100 µM (inactive)	> 100 µM (inactive)	> 100 µM (inactive)	> 100 µM (inactive)	–	> 100 µM (inactive)	> 100 µM (inactive)	> 100 µM (inactive)
COc1ccc(-c2nc3cc(C(F)(F)F)ccc3n2CC2CCCN3CCCCC23)cc1 (stereo not given)	13.4 µM (inactive)	–	–	18.1 µM (inactive)	14.3 µM (inactive)	18.7 µM (inactive)	15.5 µM (inactive)	14.8 µM (inactive)	13.2 µM (inactive)	15.8 µM (inactive)	12.7 µM (inactive)	16.1 µM (inactive)	16.6 µM (inactive)	19.2 µM (inactive)	14.9 µM (inactive)	17.7 µM (inactive)	–	17 µM (inactive)	18.5 µM (inactive)
CN(/N=C/C=N/N(C)C1=NCCCN1)C1=NCCCN1	–	> 100 µM (inactive)	> 100 µM (inactive)	> 100 µM (inactive)	–	> 100 µM (inactive)	> 100 µM (inactive)	> 100 µM (inactive)	> 100 µM (inactive)	> 100 µM (inactive)	> 100 µM (inactive)	> 100 µM (inactive)	> 100 µM (inactive)	> 100 µM (inactive)	> 100 µM (inactive)	> 100 µM (inactive)	> 100 µM (inactive)	> 100 µM (inactive)	–
Cc1ccc(S(=O)(=O)NC(=O)Nc2cccc(S(N)(=O)=O)c2)cc1	> 100 µM (inactive)	–	> 100 µM (inactive)	> 100 µM (inactive)	> 100 µM (inactive)	> 100 µM (inactive)	> 100 µM (inactive)	> 100 µM (inactive)	> 100 µM (inactive)	> 100 µM (inactive)	> 100 µM (inactive)	> 100 µM (inactive)	> 100 µM (inactive)	> 100 µM (inactive)	> 100 µM (inactive)	> 100 µM (inactive)	–	> 100 µM (inactive)	> 100 µM (inactive)
NCCCCC(NC(=O)C(N)Cc1ccc(O)cc1)C(=O)NC(Cc1ccc(O)cc1)C(=O)NC(CCCCN)C(=O)ON1C(=O)CCC1=O (stereo not given) (H-YKYK-OSu; configuration not given here)	> 100 µM (inactive)	> 100 µM (inactive)	> 100 µM (inactive)	> 100 µM (inactive)	> 100 µM (inactive)	> 100 µM (inactive)	> 100 µM (inactive)	> 100 µM (inactive)	> 100 µM (inactive)	–	> 100 µM (inactive)	–	> 100 µM (inactive)	–	> 100 µM (inactive)	–	> 100 µM (inactive)	> 100 µM (inactive)	> 100 µM (inactive)
